Read-outs that look alike come from different tables or passages of the source.
How the values were obtained:
[1] = tested on: Aurantiochytrium acetophilum HS399; format: cell-based; settings: for OCFA / Total Fatty Acids / Total Lipids: harvest; for OCFA Productivity / Propionate deposition: 120 h
Protocol: Respective Erlenmeyer flasks (250 mL) are inoculated (1% v/v) in triplicates with a 24 h old culture of A. acetophilum HS399 and incubated in an orbital shaker at 180 rpm and 27° C.
Respective Erlenmeyer flasks contain 100 mL of a medium supplemented with (g/L): dextrose (100), ammonium acetate (4.6), NaCl (12.5), MgSO4 7H2O (2.5), KH2PO4 (0.5), KCl (0.5) and CaCl2 (0.1). This medium also contains trace element solution (5 ml/L) and vitamin solution (1 ml/L). The trace element solution contains (g/L): EDTA di-sodium salt (6), FeCl3 6H2O (0.29), […] (6.84), MnCl2 4H2O (0.86), ZnCl2 (0.06), CoCl2 6H2O (0.026), NiSO4 6H2O (0.052), CuSO4 5H2O (0.002), Na2MoO4H2O (0.005). The vitamin solution contains (mg/L): thiamine (100), biotin (0.5) and cyanocobalamin (0.5).
In this example, respective culture materials are autoclaved (e.g., 121° C., 15 min) and the media is filter sterilized before use. […] Daily samples are collected to analyze the cell dry weight, residual glucose, culture pH (see FIG. 15), and lipid and fatty acid composition of the cultures. Cell dry weights are analyzed by filtration (e.g., 0.2 μm filter media) using a vacuum and washed with a solution of ammonium bicarbonate. Residual glucose is analyzed using a colorimetric method based on glucose […] activity. Biomass for lipid analysis is centrifuged and washed using purified water. The washed biomass is freeze dried. Total lipids are analyzed using Folch method (AOAC 996.06) and the FAMES are analyzed by gas chromatography and flame ionization detection using nonadecanoic (C19:0) acid as an internal standard.

[2] = tested on: Aurantiochytrium acetophilum HS399; assay: Propionate concentration and OCFA titers, flask (Example 13); format: cell-based; settings: 96 h
Text: The trace element solution contains (g/L): […] The vitamin solution contains (mg/L): thiamine (100) and biotin (0.5). […] The washed biomass is freeze dried.

[3] = tested on: Aurantiochytrium acetophilum HS399
Protocol: The cultures are incubated in an orbital shaker at 180 rpm and 27° C.
Respective Erlenmeyer flasks contain 100 mL of a medium supplemented with (g/L): dextrose (100), ammonium acetate (4.6), NaCl (12.5), MgSO4 7H2O (2.5), KH2PO4 (0.5), KCl (0.5) and CaCl2 (0.1). This medium also contains trace element solution (5 ml/L) and vitamin solution (1 ml/L). The trace element solution contains (g/L): EDTA di-sodium salt (6), FeCl3 6H2O (0.29), […] (6.84), MnCl2 4H2O (0.86), ZnCl2 (0.06), CoCl2 6H2O (0.026), NiSO4 6H2O (0.052), CuSO4 5H2O (0.002), Na2MoO4H2O (0.005). The vitamin solution contains (mg/L): thiamine (100), biotin (0.5) and cyanocobalamin (0.5). All culture materials can be autoclaved (e.g., 121° C., 15 min) and the media can be filter sterilized before use. […] Daily samples are collected to analyze the cell dry weight, residual glucose, culture pH (see FIG. 9), and lipid and fatty acid composition of the cultures. Cell dry weights (CDW) can be analyzed by filtration (e.g., 0.2 μm filter media) using a vacuum, and washed with a solution of ammonium bicarbonate. Residual glucose can be analyzed using colorimetric methods based on glucose […] activity. Biomass for lipid analysis is centrifuged and washed using purified water. The washed biomass is freeze dried. Total lipids are analyzed using Folch method (AOAC 996.06) and the FAMES re analyzed by gas chromatography using nonadecanoic (C19:0) acid as an internal standard.

[4] = propionate 0 + 1 + 1 + 1 g/L (Day 5)
[5] = propionate 0 + 2 + 2 + 2 g/L (Day 5)
[6] = propionate 0 + 3 g/L (Day 5), listed as propionate
[7] = propionate 3 g/L (Day 5), listed as propionate
[8] = 116 h, propionate 3 + 3 + 3 g/L
[9] = propionate 3 + 3 + 3 g/L (166 h)

In the case of CCC(=O)O [Propionate, propionic acid], the “residual concentration giving some growth inhibition” value [1] is reported as 1 g/L, the “increase of OCFAs productivity by feeding propionate merely during lipogenesis” value ([1]; P3 vs P0+3) is reported as “approximately 20%” and the OCFA ([1]; propionate 0 + 1 + 1 + 1 g/L) is reported as 29.2 ± 0.4 % TFA. The “Total Fatty Acids” value ([1]; propionate 0 + 1 + 1 + 1 g/L) was 67.2 ± 5.0 % DW, the “Total Lipids” value ([1]; propionate 0 + 1 + 1 + 1 g/L) was 79.7 ± 0.6 % DW and the OCFA ([1]; propionate 0 + 2 + 2 + 2 g/L) was 53.5 ± 0.8 % TFA. The “Total Fatty Acids” value ([1]; propionate 0 + 2 + 2 + 2 g/L) was 63.5 ± 1.6 % DW, the “Total Lipids” value ([1]; propionate 0 + 2 + 2 + 2 g/L) was 76.0 ± 1.0 % DW and the “Total Fatty Acids” value ([1]; propionate 0 + 3 g/L) was 66.0 ± 2.2 % DW. The “Total Lipids” value ([1]; propionate 0 + 3 g/L) was 79.5 ± 0.5 % DW, the OCFA ([1]; propionate 0 + 3 g/L (P0+3)) was 27.6 ± 0.1 % TFA and the OCFA ([1]; propionate 0 + 3 g/L (P0+3), listed as propionate) was 27.4 % TFA. For the same compound, the OCFA ([1]; propionate 3 g/L (P3)) was 25.5 ± 0.2 % TFA, the OCFA ([1]; propionate 3 g/L (P3), listed as propionate) was 25.2 % TFA and the “Total Fatty Acids” value ([1]; propionate 3 g/L (day 0)) was 64.8 ± 1.2 % DW. For the same compound, the “Total Lipids” value ([1]; propionate 3 g/L (day 0)) was 78.0 ± 0.0 % DW, the “OCFA Productivity” value [1, 4] was 1.19 ± 0.03 g/L/day and the Propionate deposition [1, 4] was 59.6 ± 1.4%. For the same compound, the “OCFA Productivity” value [1, 5] was 1.86 ± 0.04 g/L/day, the Propionate deposition [1, 5] was 46.7 ± 0.9% and the “OCFA Productivity” value ([1]; propionate 0 + 3 g/L (Day 5)) was 1.18 ± 0.02 g/L/day. For the same compound, the Propionate deposition ([1]; propionate 0 + 3 g/L (Day 5)) was 59.3 ± 1.1%, the “OCFA Productivity” value [1, 6] was 1.18 ± 0.02 g/L/day and the Propionate deposition [1, 6] was 59.3±1.1%. For the same compound, the “OCFA Productivity” value ([1]; propionate 3 g/L (Day 5)) was 1.04 ± 0.01 g/L/day, the Propionate deposition ([1]; propionate 3 g/L (Day 5)) was 52.2 ± 0.7% and the “OCFA Productivity” value [1, 7] was 1.18 ± 0.02 g/L/day. For the same compound, the Propionate deposition [1, 7] was 52.2±0.7%, the OCFA ([2]; propionate 2 g/L) was 30.7 ± 1.8 % TFA and the “Total Fatty Acids” value ([2]; propionate 2 g/L) was 54.8 ± 5.6 % DW. The OCFA ([2]; propionate 3 g/L) was 50.8 ± 1.1 % TFA, the “Total Fatty Acids” value ([2]; propionate 3 g/L) was 56.2 ± 0.6 % DW and the OCFA ([2]; propionate 4 g/L) was 63.0 ± 2.5 % TFA. The “Total Fatty Acids” value ([2]; propionate 4 g/L) was 39.2 ± 12.4 % DW, the OCFA ([2]; propionate 5 g/L) was 64.6 ± 0.3 % TFA and the “Total Fatty Acids” value ([2]; propionate 5 g/L) was 41.0 ± 3.4 % DW. The OCFA ([3]; 68 h, propionate 3 + 3 + 3 g/L) was 60.6 ± 0.4 % TFA, the “Total Fatty Acids” value ([3]; 68 h, propionate 3 + 3 + 3 g/L) was 40.7 ± 1.7 % DW and the OCFA ([3]; 68 h, propionate 3 + 3 g/L) was 60.9 ± 0.6 % TFA. For the same compound, the “Total Fatty Acids” value ([3]; 68 h, propionate 3 + 3 g/L) was 44.5 ± 4.5 % DW, the OCFA ([3]; 68 h, propionate 3 g/L) was 52.9 ± 7.3 % TFA and the “Total Fatty Acids” value ([3]; 68 h, propionate 3 g/L) was 45.1 ± 3.0 % DW. For the same compound, the “growth (cell dry weight)” value ([3]; 70 h, fed batching of 9 g/L propionate) was roughly 15 g/L, the “Total Fatty Acids” value ([3]; 96 h, propionate 3 + 3 + 3 g/L) was 56.3 ± 1.2 % DW and the “Total Lipids” value ([3]; 96 h, propionate 3 + 3 + 3 g/L) was 70.0 ± 1.0 % DW. The OCFA ([3]; 96 h, propionate 3 + 3 + 3 g/L (P9)) was 62.9 ± 0.2 % TFA, the OCFA ([3]; 96 h, propionate 3 + 3 + 3 g/L (P9), listed as propionate) was 62.4 % TFA and the “Total Fatty Acids” value ([3]; 96 h, propionate 3 + 3 g/L) was 62.5 ± 0.3 % DW. For the same compound, the “Total Lipids” value ([3]; 96 h, propionate 3 + 3 g/L) was 73.3 ± 1.5 % DW, the OCFA ([3]; 96 h, propionate 3 + 3 g/L (P6)) was 62.8 ± 0.2 % TFA and the OCFA ([3]; 96 h, propionate 3 + 3 g/L (P6), listed as propionate) was 62.4 % TFA. For the same compound, the OCFA ([3]; 96 h, propionate 3 g/L) was 24.0 ± 1.0 % TFA, the “Total Fatty Acids” value ([3]; 96 h, propionate 3 g/L) was 66.8 ± 4.8 % DW and the “Total Lipids” value ([3]; 96 h, propionate 3 g/L) was 81.0 ± 1.0 % DW. For the same compound, the OCFA [3, 8] was 60.8 ± 0.2 % TFA, the “Total Fatty Acids” value [3, 8] was 63.1 ± 2.0 % DW and the “Total Lipids” value [3, 8] was 74.0 ± 1.0 % DW. The OCFA ([3]; 116 h, propionate 3 + 3 + 3 g/L, listed as propionic acid) was 60.4 % TFA, the OCFA ([3]; 116 h, propionate 3 + 3 g/L) was 57.5 ± 1.4 % TFA and the “Total Fatty Acids” value ([3]; 116 h, propionate 3 + 3 g/L) was 70.8 ± 0.6 % DW. The “Total Lipids” value ([3]; 116 h, propionate 3 + 3 g/L) was 77.7 ± 0.6 % DW, the OCFA ([3]; 116 h, propionate 3 g/L) was 22.8 ± 0.8 % TFA and the “Total Fatty Acids” value ([3]; 116 h, propionate 3 g/L) was 71.7 ± 4.3 % DW. For the same compound, the “Total Lipids” value ([3]; 116 h, propionate 3 g/L) was 74.8 ± 0.3 % DW, the “non-lethal but growth inhibitory concentration” value ([3]; as low as, pH of 7) was 1 g/L and the “OCFA Productivity” value [3, 9] was 2.56 ± 0.04 g/L/day. The Propionate deposition [3, 9] was 39.5 ± 1.7%, the “OCFA Productivity” value ([3]; propionate 3 + 3 g/L (116 h)) was 2.89 ± 0.06 g/L/day and the Propionate deposition ([3]; propionate 3 + 3 g/L (116 h)) was 65.0 ± 0.6%. For the same compound, the “OCFA Productivity” value ([3]; propionate 3 g/L (96 h)) was 1.53 ± 0.02 g/L/day, the Propionate deposition ([3]; propionate 3 g/L (96 h)) was 57.0 ± 0.9% and the “OCFAs of total DW of algal product” value ([3]; three doses of 3 g/L, 60.4% OCFAs of the 63.1% TFA) was 38.1%.

From patent publication US12285034B2, “Human and non-human animal use of microbial anaplerotic oil” (HELIAE DEVELOPMENT, LLC, priority 2017, dated 2025)
